The numbers were not newly measured in PMC8796384, “Plasma protein binding prediction focusing on residue-level features and circularity of cyclic peptides by deep learning” (Bioinformatics, 2021), which cites them from elsewhere.

Series [1] relates to plasma proteins.
Excerpt: The external test (DrugBank) data contained some structurally similar pairs.
In series [2] the test system is plasma proteins. The note with it: whole-peptide descriptor model trained on small molecules; ref Tajimi et al. (2018).
The mark [3] stands for this setting: experimental %PPB, below 50% rounded to 50%, above 95% rounded to 95%, DrugBank dataset collected by Tajimi et al. (2018), ref Wishart et al., 2018.

Where two headings read alike, the source gives them in different places.

With Anidulafungin, the “%PPB50-95” value in the series on plasma proteins [1] (setting [3]) is 84%.
Take Caspofungin: in the series on plasma proteins [1] (setting [3]), the “%PPB50-95” value is on record as 95%.
In the case of Lanreotide, the “%PPB50-95” value in the series on plasma proteins [1] (setting [3]) is 81%.
Take Micafungin: the “%PPB50-95” value with plasma proteins [1] (setting [3]) is given as 95%.
As to Pasireotide, the “%PPB50-95” value with plasma proteins [1] is reported as 88%.
Turning to Polymyxin B, the “%PPB50-95” value in the series with plasma proteins [1] is reported as 85.5%.
daptomycin: the “predicted %PPB value by Tajimi” value in the series on plasma proteins [2] is 49%.
